How the values were obtained:
Experiment in all cases: KINOMEscan
Type in all cases: binding
EGFR(L747-T751del,Sins) = biological target: T1, EGFR(L747-T751del,Sins) (Homo sapiens, UniProt P00533, DEL747-750/T751S); conditions: read-out: % control activity remaining
T1 construct: purchased Eurofins DiscoverX KINOMEscan

PRKCE = biological target: T2, PRKCE (Homo sapiens, UniProt Q02156); conditions: read-out: % control activity remaining
T2 construct: purchased Eurofins DiscoverX KINOMEscan
T2 sequence (Q02156 1-737): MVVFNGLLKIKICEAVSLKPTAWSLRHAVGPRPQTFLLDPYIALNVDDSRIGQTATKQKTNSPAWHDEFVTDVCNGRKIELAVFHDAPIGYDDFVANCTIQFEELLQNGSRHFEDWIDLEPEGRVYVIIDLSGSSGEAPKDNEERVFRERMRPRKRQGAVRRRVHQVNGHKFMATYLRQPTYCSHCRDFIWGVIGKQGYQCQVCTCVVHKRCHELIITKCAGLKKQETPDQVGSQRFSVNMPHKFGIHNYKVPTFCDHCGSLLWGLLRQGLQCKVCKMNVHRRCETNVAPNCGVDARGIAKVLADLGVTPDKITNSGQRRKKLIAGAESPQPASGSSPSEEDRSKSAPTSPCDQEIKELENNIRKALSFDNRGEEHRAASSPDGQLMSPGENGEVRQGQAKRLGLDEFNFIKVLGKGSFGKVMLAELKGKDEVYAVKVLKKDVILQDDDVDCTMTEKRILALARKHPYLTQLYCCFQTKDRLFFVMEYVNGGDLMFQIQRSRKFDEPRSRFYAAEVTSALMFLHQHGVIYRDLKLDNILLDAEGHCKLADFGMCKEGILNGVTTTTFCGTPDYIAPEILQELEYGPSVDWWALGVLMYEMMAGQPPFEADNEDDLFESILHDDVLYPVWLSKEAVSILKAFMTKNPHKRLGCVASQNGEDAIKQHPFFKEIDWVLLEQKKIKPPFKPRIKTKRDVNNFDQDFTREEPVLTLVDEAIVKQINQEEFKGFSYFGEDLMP

MLCK = biological target: T3, MLCK (Homo sapiens, UniProt Q32MK0); conditions: for remaining binding at 1 µM: read-out: % control activity remaining
T3 construct: purchased Eurofins DiscoverX KINOMEscan
T3 sequence (Q32MK0 1-819): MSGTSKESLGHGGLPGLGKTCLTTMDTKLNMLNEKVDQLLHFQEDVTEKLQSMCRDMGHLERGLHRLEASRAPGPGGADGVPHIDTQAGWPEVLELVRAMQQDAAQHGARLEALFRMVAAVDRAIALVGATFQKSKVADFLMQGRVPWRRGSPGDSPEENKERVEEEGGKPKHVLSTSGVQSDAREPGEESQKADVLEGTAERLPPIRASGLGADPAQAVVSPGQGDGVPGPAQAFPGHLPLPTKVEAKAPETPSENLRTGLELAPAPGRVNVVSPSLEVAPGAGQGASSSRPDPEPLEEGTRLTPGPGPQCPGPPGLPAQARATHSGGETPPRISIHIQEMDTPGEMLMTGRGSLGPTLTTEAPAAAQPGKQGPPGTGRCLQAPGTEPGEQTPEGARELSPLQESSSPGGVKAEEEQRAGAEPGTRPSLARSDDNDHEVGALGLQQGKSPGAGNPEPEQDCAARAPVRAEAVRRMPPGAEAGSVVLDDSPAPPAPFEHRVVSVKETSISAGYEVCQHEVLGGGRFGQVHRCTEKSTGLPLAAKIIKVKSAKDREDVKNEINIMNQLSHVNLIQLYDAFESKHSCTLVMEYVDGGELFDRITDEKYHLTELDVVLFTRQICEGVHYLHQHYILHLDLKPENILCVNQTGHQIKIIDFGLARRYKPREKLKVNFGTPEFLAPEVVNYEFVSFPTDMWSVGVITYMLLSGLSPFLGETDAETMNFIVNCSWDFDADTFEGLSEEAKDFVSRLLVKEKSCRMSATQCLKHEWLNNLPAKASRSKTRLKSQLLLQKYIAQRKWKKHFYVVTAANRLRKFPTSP

PIK3CA(Q546K) = biological target: T4, PIK3CA(Q546K) (Homo sapiens, UniProt P42336, Q546K); conditions: read-out: % control activity remaining
T4 construct: purchased Eurofins DiscoverX KINOMEscan
T4 sequence (P42336 whole entry Q546K): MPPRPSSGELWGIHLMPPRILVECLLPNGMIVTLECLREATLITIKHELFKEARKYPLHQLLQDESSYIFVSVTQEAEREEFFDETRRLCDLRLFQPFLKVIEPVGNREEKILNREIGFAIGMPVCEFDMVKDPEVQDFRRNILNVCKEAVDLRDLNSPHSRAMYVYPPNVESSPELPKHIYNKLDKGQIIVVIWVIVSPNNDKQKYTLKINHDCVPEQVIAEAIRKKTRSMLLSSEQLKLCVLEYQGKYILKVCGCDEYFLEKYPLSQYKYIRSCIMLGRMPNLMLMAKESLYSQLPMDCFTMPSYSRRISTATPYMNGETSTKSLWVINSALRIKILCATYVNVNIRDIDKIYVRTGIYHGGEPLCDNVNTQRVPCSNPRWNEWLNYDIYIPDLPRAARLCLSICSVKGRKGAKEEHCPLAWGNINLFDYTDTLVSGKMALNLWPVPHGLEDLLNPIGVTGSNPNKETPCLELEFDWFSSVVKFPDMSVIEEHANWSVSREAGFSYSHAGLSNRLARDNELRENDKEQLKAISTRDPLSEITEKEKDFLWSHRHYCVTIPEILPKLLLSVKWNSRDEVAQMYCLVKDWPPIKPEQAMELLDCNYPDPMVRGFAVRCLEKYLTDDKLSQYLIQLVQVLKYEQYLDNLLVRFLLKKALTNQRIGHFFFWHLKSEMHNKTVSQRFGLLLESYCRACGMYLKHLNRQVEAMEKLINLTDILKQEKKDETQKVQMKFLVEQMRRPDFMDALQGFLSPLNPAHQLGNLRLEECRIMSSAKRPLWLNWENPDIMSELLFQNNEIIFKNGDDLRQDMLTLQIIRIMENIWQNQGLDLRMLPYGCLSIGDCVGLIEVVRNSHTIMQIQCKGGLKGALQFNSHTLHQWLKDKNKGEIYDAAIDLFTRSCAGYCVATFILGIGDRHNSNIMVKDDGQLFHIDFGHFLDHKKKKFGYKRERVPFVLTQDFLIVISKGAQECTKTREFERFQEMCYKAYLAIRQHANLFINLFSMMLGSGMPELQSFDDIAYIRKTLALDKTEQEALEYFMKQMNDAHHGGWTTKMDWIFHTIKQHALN

GSK3A = biological target: T5, GSK3A (Homo sapiens, UniProt P49840); conditions: read-out: % control activity remaining
T5 construct: purchased Eurofins DiscoverX KINOMEscan
T5 sequence (P49840 whole entry): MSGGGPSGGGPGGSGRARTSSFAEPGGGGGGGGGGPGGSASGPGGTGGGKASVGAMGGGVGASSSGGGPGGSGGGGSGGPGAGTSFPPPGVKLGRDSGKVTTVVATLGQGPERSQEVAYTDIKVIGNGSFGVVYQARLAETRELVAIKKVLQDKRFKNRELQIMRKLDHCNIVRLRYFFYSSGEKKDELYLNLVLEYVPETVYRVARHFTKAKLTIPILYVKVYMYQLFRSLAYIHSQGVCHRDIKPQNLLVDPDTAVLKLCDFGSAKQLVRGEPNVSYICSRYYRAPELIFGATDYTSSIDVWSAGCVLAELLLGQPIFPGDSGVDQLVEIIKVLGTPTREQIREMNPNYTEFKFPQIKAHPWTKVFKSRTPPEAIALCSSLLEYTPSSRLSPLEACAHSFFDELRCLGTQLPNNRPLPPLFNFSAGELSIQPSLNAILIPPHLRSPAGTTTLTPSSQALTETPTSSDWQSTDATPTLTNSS

LOK = biological target: T6, LOK (Homo sapiens, UniProt O94804); conditions: read-out: % control activity remaining
T6 construct: purchased Eurofins DiscoverX KINOMEscan
T6 sequence (O94804 whole entry): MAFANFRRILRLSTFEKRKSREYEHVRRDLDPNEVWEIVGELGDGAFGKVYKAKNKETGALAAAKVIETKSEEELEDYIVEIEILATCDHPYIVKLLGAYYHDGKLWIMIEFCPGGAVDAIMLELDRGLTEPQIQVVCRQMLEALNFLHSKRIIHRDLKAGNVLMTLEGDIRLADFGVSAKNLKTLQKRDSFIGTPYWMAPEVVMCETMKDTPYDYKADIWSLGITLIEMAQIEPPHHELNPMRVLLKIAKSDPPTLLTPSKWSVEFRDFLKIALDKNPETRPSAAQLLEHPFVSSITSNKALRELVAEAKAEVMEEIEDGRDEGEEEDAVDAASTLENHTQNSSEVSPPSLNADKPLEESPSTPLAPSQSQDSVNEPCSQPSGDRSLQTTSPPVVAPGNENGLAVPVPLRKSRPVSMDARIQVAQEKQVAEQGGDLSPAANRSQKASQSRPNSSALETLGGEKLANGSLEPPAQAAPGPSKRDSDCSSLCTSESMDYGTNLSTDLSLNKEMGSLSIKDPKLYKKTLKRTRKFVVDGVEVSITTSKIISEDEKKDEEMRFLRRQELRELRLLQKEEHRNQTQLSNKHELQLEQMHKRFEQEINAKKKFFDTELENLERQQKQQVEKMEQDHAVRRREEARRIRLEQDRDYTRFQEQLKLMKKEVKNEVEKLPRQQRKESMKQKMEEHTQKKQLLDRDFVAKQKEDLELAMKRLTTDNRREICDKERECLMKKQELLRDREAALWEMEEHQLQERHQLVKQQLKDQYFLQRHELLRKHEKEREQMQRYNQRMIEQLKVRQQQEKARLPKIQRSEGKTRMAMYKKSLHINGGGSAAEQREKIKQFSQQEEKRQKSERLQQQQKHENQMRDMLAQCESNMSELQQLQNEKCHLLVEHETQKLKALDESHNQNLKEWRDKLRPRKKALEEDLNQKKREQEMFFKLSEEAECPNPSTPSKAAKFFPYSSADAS

[1] = biological target: T7, ABL1(T315I)-phosphorylated (Homo sapiens, UniProt P00519, T315I); conditions: read-out: % control activity remaining
T7 construct: purchased Eurofins DiscoverX KINOMEscan

NIK = biological target: T8, NIK (Homo sapiens, UniProt Q99558); conditions: read-out: % control activity remaining
T8 construct: purchased Eurofins DiscoverX KINOMEscan
T8 sequence (Q99558 whole entry): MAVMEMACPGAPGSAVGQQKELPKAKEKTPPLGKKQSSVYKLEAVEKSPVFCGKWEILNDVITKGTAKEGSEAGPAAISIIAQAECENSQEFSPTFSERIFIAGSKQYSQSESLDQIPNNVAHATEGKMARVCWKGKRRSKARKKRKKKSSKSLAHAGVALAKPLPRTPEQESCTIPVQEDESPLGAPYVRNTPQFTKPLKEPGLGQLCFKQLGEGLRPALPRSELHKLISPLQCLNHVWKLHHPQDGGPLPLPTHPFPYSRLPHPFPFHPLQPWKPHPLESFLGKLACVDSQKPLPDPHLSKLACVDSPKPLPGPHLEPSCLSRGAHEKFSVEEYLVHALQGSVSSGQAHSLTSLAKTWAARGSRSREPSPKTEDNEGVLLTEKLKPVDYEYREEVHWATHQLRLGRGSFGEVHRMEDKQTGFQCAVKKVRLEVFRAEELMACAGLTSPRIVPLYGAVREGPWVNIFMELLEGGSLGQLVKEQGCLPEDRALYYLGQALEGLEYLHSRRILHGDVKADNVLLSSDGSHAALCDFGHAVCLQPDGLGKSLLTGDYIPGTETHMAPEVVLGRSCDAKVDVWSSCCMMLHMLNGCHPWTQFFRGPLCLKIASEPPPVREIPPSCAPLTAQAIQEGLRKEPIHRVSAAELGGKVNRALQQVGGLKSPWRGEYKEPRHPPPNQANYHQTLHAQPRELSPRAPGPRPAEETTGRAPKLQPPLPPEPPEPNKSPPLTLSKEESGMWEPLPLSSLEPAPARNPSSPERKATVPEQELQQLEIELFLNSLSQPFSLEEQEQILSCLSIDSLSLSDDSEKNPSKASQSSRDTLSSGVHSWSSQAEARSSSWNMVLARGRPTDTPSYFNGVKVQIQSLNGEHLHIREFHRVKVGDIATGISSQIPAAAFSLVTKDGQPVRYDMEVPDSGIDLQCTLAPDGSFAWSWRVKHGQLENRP

T1 sequence (P00533 with tags, fused parts or gaps DEL747-750/T751S limits assumed): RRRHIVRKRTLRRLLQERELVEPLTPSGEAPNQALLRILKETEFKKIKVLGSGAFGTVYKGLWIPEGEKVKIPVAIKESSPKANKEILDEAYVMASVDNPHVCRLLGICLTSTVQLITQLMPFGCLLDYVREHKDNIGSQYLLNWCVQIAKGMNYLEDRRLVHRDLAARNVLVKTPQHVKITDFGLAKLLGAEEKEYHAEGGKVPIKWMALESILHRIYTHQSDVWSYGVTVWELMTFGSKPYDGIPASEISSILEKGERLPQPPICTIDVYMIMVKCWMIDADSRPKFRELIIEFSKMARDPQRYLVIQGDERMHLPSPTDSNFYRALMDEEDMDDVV

Compound | remaining binding at 1 µM (EGFR(L747-T751del,Sins)) [%] | remaining binding at 1 µM (PRKCE) [%] | remaining binding at 1 µM (MLCK) [%] | remaining binding at 1 µM (PIK3CA(Q546K)) [%] | remaining binding at 1 µM (GSK3A) [%] | remaining binding at 1 µM (LOK) [%] | remaining binding at 1 µM [1] [%] | remaining binding at 1 µM (NIK) [%] | inhibition at 1 µM (MLCK; read-out: Probe binding inhibited) [%]
Clc1cc(NCC2CC2)c2ncc(-c3ccc4[nH]ncc4c3)n2n1 [compound 2, 6-Chloro-N-(cyclopropylmethyl)-3-(1H-indazol-5-yl)imidazo[1,2-b]pyridazin-8-amine] | 88 | 100 | 80 | 88 | 93 | 100 | 94 | 90 | –
O=C(CN1CCOCC1)N[C@H]1CC[C@H](Nc2cc(Cl)nn3c(-c4ccc5[nH]ncc5c4)cnc23)CC1 [compound 26] | 96 | 96 | 6.6 | 100 | 100 | 100 | 50 | 78 | > 90
CN1CCC(CNc2cc(Cl)nn3c(-c4cc5nc(Nc6ccccc6)[nH]c5cc4F)cnc23)CC1 [compound 31, 6-Chloro-3-(6-fluoro-2-(phenylamino)-1H-benzo[d]imidazol-5-yl)-N-((1-methylpiperidin-4-yl)methyl)imidazo[1,2-b]pyridazin-8-amine] | 92 | 86 | 89 | 81 | 84 | 91 | 87 | 92 | –

From publication PMC6437697 (Journal of Medicinal Chemistry, 2019)
